In patent US10155001B2, “RAC1 inhibitors for inducing bronchodilation” (INSERM (Institut National de la Sante et de la Recherche …, priority 2013, dated 2018):
“Also recorded” adds a separate entry of the source.

What was measured:
[1] = system: methacholine-dependent bronchoconstriction; test: Airways responsiveness in vivo to inhaled methacholine, whole-body plethysmography, control (naive) mice; settings: nebulized 10 min before methacholine challenge, FIG. 3, B and FIG. 6, E (ap/ap)
[2] = system: AHR to methacholine in OVA-sensitized mice; test: Airway hyper-responsiveness to methacholine in OVA model of allergic asthma, plethysmography; settings: for AHR to methacholine: OVA-sensitized mice, nebulized before methacholine challenge, FIG. 6, E (o/o); for metacholine-induced airway response: summary statement: compared with SM-Rac1-KO mice in the OVA-sensitized model of allergic asthma
Experimental: Analysis of airways responsiveness in vivo: Airway responsiveness was assessed in conscious, unrestrained mice using a barometric, whole-body plethysmography (EMKA Technologies) by recording respiratory pressure curves in response to inhaled methacholine (Sigma) at concentrations of 0-40 mg/ml for 1 min. Airway responsiveness was expressed in enhanced pause (Penh) units. The Penh values measured after stimulation were averaged and expressed as the fold-increase over baseline values. Alternatively, dynamic airway resistance was measured using a Flexivent® apparatus (SCIREQ). In this case, mice were anesthetized by a ketamine/xylazine solution, tracheotomized, paralyzed and immediately intubated, followed by mechanical ventilation. Respiratory frequency was set at 150 breaths/min. Increasing concentrations of methacholine (0-15 mg/mL) were administered via a nebulizer aerosol system (Aeroneb, Aerogen).
Allergic asthma induction: When indicated, asthma was induced in mice by intraperitoneal injections with ovalbumin (OVA) in alum (Sigma) at D0, D14 and D21. Mice were challenged at D27, D28 and D29 through intranasal route with aerosolized OVA (50 μg in phosphate-buffered saline). These OVA-sensitized mice were used as a model of in vivo chronic asthma. Control mice were sensitized with PBS/alum and then were challenged with PBS.

bronchial rings = test: Analysis of airways reactivity ex vivo: bronchial rings on isometric myograph; settings: bronchial rings from SM-Rac1-KO mice; FIG. 2, A and B
Experimental: (§1) Analysis of airways reactivity ex vivo: Primary bronchi were cut in 2 mm-long rings and mounted on a multichannel isometric myograph (Danish Myo Technology) containing a Krebs-Henseleit solution (118.4 mM NaCl, 4.7 mM KCl, 2 mM CaCl2, 1.2 mM MgSO4, 1.2 mM KH2PO4, 25 mM NaHCO3 and 11 mM glucose). A pre-trension of 0.5 mN was applied and maintained all along the protocol. We constructed cumulative concentration-response curves in response to KCl and methacholine (Sigma). When indicated, we pretreated rings with EHT1864 (Sigma) or NSC23766 (Calbiochem) Rac1 inhibitors at 10 μM, 1 h before contraction. Chambers wire myograph were connected to a digital data recorder (MacLab/4e, AD Instruments) and recordings were analyzed using LabChart v7 software (AD Instruments).

[3] = system: bronchial rings from control and house dust mite (HDM)-sensitized mice; test: Contractile responses ex vivo of bronchial rings from control and house dust mite-sensitized mice; settings: bronchial rings from control and HDM-sensitized mice pre-treated with inhibitor; FIG. 7
Experimental: as §1
Allergic asthma induction: House dust mite model (HDM) of chronic asthma was used. In this case, mice were sensitized on days D0, D7, D14 and D21 by skin application of 500 μg of total extract of HDM Der f (Stallergenes) in 20 μL of dimethylsulfoxyde (DMSO, Sigma-Aldrich) on the ears. DMSO was used as an irritant able to facilitate the allergen penetration. Intranasal challenges were performed with Der f (250 μg in phosphate-buffered saline 250) on D27 and D34. Mice were sacrificed on D35 for ex vivo analysis.

| Structure (SMILES) | methacholine-dependent bronchoconstriction (airway reactivity, Penh) [1] | AHR to methacholine [2] | metacholine-induced airway response [2] | KCl- and methacholine-induced contraction (bronchial rings) | methacholine and KCl contractions (bronchial reactivity) [3] |
| --- | --- | --- | --- | --- | --- |
| CC(C)(C)NCC(O)c1ccc(O)c(CO)c1 (centres unmarked) [salbutamol] | efficiency of NSC23766 aerosol inhalation is similar to that of salbutamol; also recorded: effect of NSC23766 aerosol inhalation was comparable to that of salbutamol treatment | effect of NSC23766 aerosol inhalation was comparable to that of salbutamol treatment |  |  |  |
| CCN(CC)CCCC(C)Nc1nc(C)cc(Nc2ccc3nc(C)cc(N)c3c2)n1 (centres unmarked) [NSC23766] | prevented methacholine-dependent bronchoconstriction (FIG. 3, B) in a dose-dependent manner; also recorded: comparable to that of salbutamol treatment | almost completely prevented the AHR to methacholine; also recorded: comparable to that of salbutamol treatment | Same results have been obtained | absence of any effect |  |
| O=c1cc(CN2CCOCC2)occ1OCCCCCSc1ccnc2cc(C(F)(F)F)ccc12 [EHT1864] |  |  | Same results have been obtained |  | methacholine and KCl contractions are inhibited in both group of bronchial rings; also recorded: bronchial reactivities of control and HDM sensitized-mice are similar |
